According to US20070197522A1, “Dpp-iv inhibitors” (priority 2004, published 2007):
Where a name gives a salt, the structure may show the parent alone. Read-outs that look alike come from different tables or passages of the source.

Target: T1, DPP-IV (Homo sapiens, UniProt P27487)
T1 construct: Soluble human DPP-IV lacking the transmembrane anchor (Gly31-Pro766) was expressed in a recombinant YEAST-strain; Pre-Pro-alpha-mating factor leader (secretion fusion) (N, cleaved yes); made in house
Experiment: Inhibition of DPP-IV peptidase activity, continuous fluorimetric assay (Gly-Pro-AMC cleavage)
Assay type: biochemical, human and porcine
Procedure: Inhibition of DPP-IV peptidase activity was monitored with a continuous fluorimetric assay. This assay is based on the cleavage of the substrate Gly-Pro-AMC (Bachem) by DPP-IV, releasing free AMC. The assay is carried out in 96-well microtiterplates. In a total volume of 100 μL, compounds are preincubated with 50 pM DPP-IV employing a buffer containing 10 mM Hepes, 150 mM NaCl, 0.005% Tween 20 (pH 7.4). […] The final concentration of DMSO is 1%. The inhibitory potential of the compounds were determined.
Soluble human DPP-IV lacking the transmembrane anchor (Gly31-Pro766) was expressed in a recombinant YEAST-strain as Pre-Pro-alpha-mating fusion. The secreted product (rhuDPP-IV-Gly31-Pro766) was purified from fermentation broth (>90% purity).

[1] = inhibition of DPP-IV peptidase activity, 50 pM DPP-IV, 16 μM Gly-Pro-AMC, pH 7.4, 25° C., values grouped in 3 classes, read-out: IC50

T1 sequence (P27487 31-766): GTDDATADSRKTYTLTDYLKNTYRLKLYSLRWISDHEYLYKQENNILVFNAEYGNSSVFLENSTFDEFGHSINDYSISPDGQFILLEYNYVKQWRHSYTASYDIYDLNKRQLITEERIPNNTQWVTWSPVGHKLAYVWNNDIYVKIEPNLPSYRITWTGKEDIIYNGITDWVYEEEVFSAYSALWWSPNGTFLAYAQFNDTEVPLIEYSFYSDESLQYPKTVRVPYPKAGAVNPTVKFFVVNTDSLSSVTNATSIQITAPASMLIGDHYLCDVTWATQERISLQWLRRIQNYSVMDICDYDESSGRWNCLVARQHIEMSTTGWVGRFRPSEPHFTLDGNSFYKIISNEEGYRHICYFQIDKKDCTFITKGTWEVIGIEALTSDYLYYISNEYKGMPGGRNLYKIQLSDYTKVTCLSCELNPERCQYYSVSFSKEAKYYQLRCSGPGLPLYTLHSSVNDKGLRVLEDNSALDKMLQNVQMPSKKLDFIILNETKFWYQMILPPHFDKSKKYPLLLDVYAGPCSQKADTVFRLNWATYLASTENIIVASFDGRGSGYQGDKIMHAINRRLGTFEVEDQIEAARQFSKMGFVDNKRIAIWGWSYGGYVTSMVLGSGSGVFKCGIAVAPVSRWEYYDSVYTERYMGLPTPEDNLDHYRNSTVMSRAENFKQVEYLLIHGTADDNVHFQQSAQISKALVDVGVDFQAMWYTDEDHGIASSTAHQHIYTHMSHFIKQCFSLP

## CN(Cc1ccccc1F)C(=O)C[C@H](N)Cc1ccccc1F [Example 36, (3R)-Amino-N-(2-fluoro-benzyl)-4-(2-fluoro-phenyl)-N-methyl-butyramide Hydrochloride]
[1]
  IC50: 0.101 to 1 µM

## N[C@@H](CC(=O)N(CCN1CCOCC1)Cc1cccnc1)Cc1ccccc1F [Example 155]
[1]
  IC50: 0.101 to 1 µM

## NC(CC(=O)NC(CN1CCCC1)c1ccccc1)Cc1ccccc1F (single isomer, unassigned) [Example 135]
[1]
  IC50: < 0.1 µM

## CC(C)c1ccc(CNC(=O)C[C@H](N)Cc2ccccc2F)cc1 [Example 73]
[1]
  IC50: 0.101 to 1 µM

## N[C@@H](CC(=O)NCCc1ccccn1)Cc1ccccc1F [Example 40]
[1]
  IC50: 0.101 to 1 µM

## N[C@@H](CC(=O)NC(CN1CCCC1)c1ccccc1)Cc1ccccc1F (single isomer, unassigned) [Example 87]
[1]
  IC50: < 0.1 µM

## CN(C(=O)C[C@H](N)Cc1ccccc1F)[C@@H](CN1CCCC1)c1ccccc1 [Example 179, (R)-3-Amino-4-(2-fluoro-phenyl)-N-methyl-N-(1-phenyl-2-pyrrolidin-1-yl-ethyl)-butyramide Formic Acid]
IC50, inhibition of DPP-IV peptidase activity, 50 pM DPP-IV, 16 μM Gly-Pro-AMC, pH 7.4, 25° C., values grouped in 3 classes
  IC50: 0.101 to 1 µM

## CCOc1ccccc1CCNC(=O)C[C@H](N)Cc1ccccc1F [Example 130]
[1]
  IC50: 0.101 to 1 µM

## CN(CC(c1ccccc1)N1CCOCC1)C(=O)C[C@H](N)Cc1ccccc1F (stereo partly drawn) [Example 177]
[1]
  IC50: < 0.1 µM

## N[C@@H](CC(=O)NCc1cnn(-c2ccccc2)c1)Cc1ccccc1F [Example 163]
[1]
  IC50: 0.101 to 1 µM

## Cc1ccccc1CNC(=O)C[C@H](N)Cc1ccccc1F [Example 49]
[1]
  IC50: 0.101 to 1 µM

## N[C@@H](CC(=O)NCc1ccc(-n2cccn2)cc1)Cc1ccccc1F [Example 63]
[1]
  IC50: < 0.1 µM

## N#Cc1ccc(CNC(=O)C[C@H](N)Cc2ccccc2F)cc1 [Example 129]
[1]
  IC50: 0.101 to 1 µM

## Cc1noc(C)c1CCNC(=O)C[C@H](N)Cc1ccccc1F [Example 80]
[1]
  IC50: 0.101 to 1 µM

## N[C@@H](CC(=O)N(Cc1cccnc1)C1CC1)Cc1ccccc1F [Example 145]
[1]
  IC50: 0.101 to 1 µM

## NC(CC(=O)N(Cc1ccccc1F)C1CC1)Cc1ccccc1F (stereo not drawn) [Example 144]
[1]
  IC50: 0.101 to 1 µM

## N[C@@H](CC(=O)NCc1cc(-c2ccc(Cl)cc2)no1)Cc1ccccc1F [Example 152]
[1]
  IC50: 0.101 to 1 µM

## CN(Cc1cccc(C(F)(F)F)c1)S(=O)(=O)C[C@H](N)Cc1ccccc1F [Example 193, (R)-2-Amino-3-(2-fluoro-phenyl)-propane-1-sulphonic acid methyl-(3-trifluoromethyl-benzyl)-amide]
[1]
  IC50: 0.101 to 1 µM

## N[C@@H](CC(=O)NC(CN1CCCCC1)c1ccccc1)Cc1ccccc1F (single isomer, unassigned) [Example 109]
[1]
  IC50: 0.101 to 1 µM

## CN(C)CCNC(=O)C[C@H](N)Cc1ccccc1F [Example 39]
[1]
  IC50: 0.101 to 1 µM

## N[C@@H](CC(=O)NCc1cccc(C(=O)NC2CC2)c1)Cc1ccccc1F [Example 32, 3-{[(3R)-3-Amino-4-(2-fluoro-phenyl)-butyrylamino]-methyl}-N-cyclopropyl-benzamide. Trifluoroacetate Salt]
[1]
  IC50: 0.101 to 1 µM

## N[C@@H](CC(=O)NCc1n[nH]c2ccc(Cl)cc12)Cc1ccccc1F [Example 161]
IC50
  IC50: 0.101 to 1 µM

## NC(CC(=O)NCC(c1ccccc1)N1CCOCC1)Cc1ccccc1F (stereo not drawn) [Example 167]
[1]
  IC50: 0.101 to 1 µM

## N[C@@H](CC(=O)N[C@@H](CN1CCCCC1)c1ccccc1)Cc1ccccc1F [Example 173]
[1]
  IC50: 0.101 to 1 µM

## N[C@@H](CC(=O)NCc1ccc(C(F)(F)F)cc1)Cc1ccccc1F [Example 68]
[1]
  IC50: 0.101 to 1 µM

## N[C@@H](CC(=O)NCc1ccc(OC(F)F)cc1)Cc1ccccc1F [Example 153]
[1]
  IC50: 1 to 2 µM

## N[C@@H](CC(=O)NCc1cc(Cl)ccc1-n1cncn1)Cc1ccccc1F [Example 164]
[1]
  IC50: 0.101 to 1 µM

## CN1CCN(c2ccc(CNC(=O)C[C@H](N)Cc3ccccc3F)cc2)CC1 [Example 127]
[1]
  IC50: 0.101 to 1 µM

## N[C@@H](CC(=O)NCc1cccc2ncccc12)Cc1ccccc1F [Example 138]
[1]
  IC50: 0.101 to 1 µM

## N[C@@H](CC(=O)NCc1cccc2cnccc12)Cc1ccccc1F [Example 116]
[1]
  IC50: 1 to 2 µM

## NC(CC(=O)NC1CCCc2ccccc21)Cc1ccccc1F (stereo not drawn) [Example 45]
[1]
  IC50: 0.101 to 1 µM

## CN(Cc1ccccc1Cl)C(=O)C[C@H](N)Cc1ccccc1F [Example 123]
[1]
  IC50: 0.101 to 1 µM

## N[C@@H](CC(=O)NCc1cccc(C(=O)NCc2ccccc2F)c1)Cc1ccccc1F [Example 33]
[1]
  IC50: 0.101 to 1 µM

## N[C@@H](CC(=O)NCc1ccccc1N1CCCCC1)Cc1ccccc1F [Example 154]
[1]
  IC50: 0.101 to 1 µM

## CN(C)CCOc1ccc(CNC(=O)C[C@H](N)Cc2ccccc2F)cc1 [Example 143]
[1]
  IC50: 1 to 2 µM

## N[C@@H](CC(=O)NCC(c1cccc(Cl)c1)N1CCCC1)Cc1ccccc1F (stereo partly drawn) [Example 172]
[1]
  IC50: 0.101 to 1 µM

## Cc1nn(-c2ccccc2)c(C)c1CNC(=O)C[C@H](N)Cc1ccccc1F [Example 140]
[1]
  IC50: 0.101 to 1 µM

## N[C@@H](CC(=O)NC(CN1CCOCC1)c1ccccc1)Cc1ccccc1F (single isomer, unassigned) [Example 86]
[1]
  IC50: 0.101 to 1 µM

## Cc1ccc(C(C)NC(=O)CC(N)Cc2ccccc2F)cc1 (stereo not drawn) [Example 89]
[1]
  IC50: 0.101 to 1 µM

## N[C@@H](CC(=O)NCc1ccc(Cl)cc1)Cc1ccccc1F [Example 54]
[1]
  IC50: 0.101 to 1 µM

## N[C@@H](CC(=O)NC(c1ccccc1)c1ccccc1)Cc1ccccc1F [Example 47]
[1]
  IC50: 0.101 to 1 µM

## N[C@@H](CC(=O)NCc1ccc2c(c1)CCO2)Cc1ccccc1F [Example 56]
[1]
  IC50: 0.101 to 1 µM

## CN(C(=O)C[C@H](N)Cc1ccccc1F)C(c1ccccc1)c1ccccc1 [Example 105]
[1]
  IC50: 0.101 to 1 µM

## Cc1ccccc1CN(C)C(=O)C[C@H](N)Cc1ccccc1F [Example 37, 3-Amino-4-(2-fluoro-phenyl)-N-methyl-N-(2-methyl-benzyl)-butyramide Hydrochloride]
[1]
  IC50: 0.101 to 1 µM

## N[C@@H](CC(=O)NCC(c1ccccc1)N1CCCC1)Cc1ccccc1F (single isomer, unassigned) [Example 131]
[1]
  IC50: 0.101 to 1 µM

## N[C@@H](CC(=O)NCc1ccncc1)Cc1ccccc1F [Example 48]
[1]
  IC50: 0.101 to 1 µM

## COc1ccc(-c2cc(CNC(=O)C[C@H](N)Cc3ccccc3F)on2)cc1 [Example 57]
[1]
  IC50: 0.101 to 1 µM

## N[C@@H](CC(=O)NCc1ccccc1F)Cc1ccccc1F [Example 117]
[1]
  IC50: 0.101 to 1 µM

## CC(NC(=O)C[C@H](N)Cc1ccccc1F)c1ccc(-n2ccnc2)cc1 (stereo partly drawn) [Example 174]
[1]
  IC50: 0.101 to 1 µM

## CN(C)C(CNC(=O)C[C@H](N)Cc1ccccc1F)c1ccccc1Cl (single isomer, unassigned) [Example 84]
[1]
  IC50: 0.101 to 1 µM

## N[C@@H](CC(=O)NCCN1CCCCC1)Cc1ccccc1F [Example 82]
[1]
  IC50: 0.101 to 1 µM

## N[C@@H](CC(=O)NCc1cccc(C(=O)Nc2ccccn2)c1)Cc1ccccc1F [Example 34]
[1]
  IC50: 0.101 to 1 µM

## COc1ccc(CN(C)C(=O)C[C@H](N)Cc2ccccc2F)cc1 [Example 126]
[1]
  IC50: 0.101 to 1 µM

## N[C@@H](CC(=O)NCC1CCCc2ccccc21)Cc1ccccc1F (single isomer, unassigned) [Example 78]
[1]
  IC50: 0.101 to 1 µM

## CN1CCN(CC(c2ccccc2)N(C)C(=O)C[C@H](N)Cc2ccccc2F)CC1 (stereo partly drawn) [Example 160]
[1]
  IC50: 1 to 2 µM

## N[C@@H](CC(=O)NC1Cc2ccccc2C1)Cc1ccccc1F [Example 55]
[1]
  IC50: 0.101 to 1 µM

## NC(=O)c1ccc(CNC(=O)C[C@H](N)Cc2ccccc2F)cc1 [Example 31, 4-{[(3R)-3-Amino-4-(2-fluoro-phenyl)-butyrylamino]-methyl}-benzamide.trifluoroacetate Salt]
[1]
  IC50: 0.101 to 1 µM

## CN(C)C(CNC(=O)C[C@H](N)Cc1ccccc1F)c1ccccc1 (single isomer, unassigned) [Example 85]
[1]
  IC50: 0.101 to 1 µM

## N[C@@H](CC(=O)NCCc1c(F)cccc1Cl)Cc1ccccc1F [Example 114]
[1]
  IC50: 0.101 to 1 µM

## C[S+]([O-])c1ccccc1CNC(=O)C[C@H](N)Cc1ccccc1F (single isomer, unassigned) [Example 137]
[1]
  IC50: 0.101 to 1 µM

## NC(CC(=O)NCc1ccc(Oc2ccccc2)cc1)Cc1ccccc1F (stereo not drawn) [Example 76]
[1]
  IC50: 0.101 to 1 µM

## COc1ccc(Oc2cccc(F)c2CNC(=O)C[C@H](N)Cc2ccccc2F)cc1 [Example 142]
[1]
  IC50: 0.101 to 1 µM

## N[C@@H](CC(=O)NCc1ccccc1)Cc1ccccc1F [Example 41]
[1]
  IC50: 1 to 2 µM

## N[C@@H](CC(=O)NCc1cccc(F)c1)Cc1ccccc1F [Example 118]
[1]
  IC50: 0.101 to 1 µM

## N[C@@H](CC(=O)NCc1ccccc1-c1ccccc1)Cc1ccccc1F [Example 75]
[1]
  IC50: 0.101 to 1 µM

## N[C@@H](CC(=O)NCc1cc(F)c(F)c(F)c1)Cc1ccccc1F [Example 65]
[1]
  IC50: 0.101 to 1 µM

## Cc1ccccc1-n1nc(C)c(CNC(=O)C[C@H](N)Cc2ccccc2F)c1C [Example 151]
[1]
  IC50: 0.101 to 1 µM

## N[C@@H](CC(=O)NCCc1cccc(Cl)c1)Cc1ccccc1F [Example 112]
[1]
  IC50: 0.101 to 1 µM

## NC(CC(=O)NCC(c1ccccc1Cl)N1CCCC1)Cc1ccccc1F (single isomer, unassigned) [Example 134]
[1]
  IC50: < 0.1 µM

## N[C@@H](CC(=O)NCCNC(=O)c1ccccn1)Cc1ccccc1F [Example 148]
[1]
  IC50: 0.101 to 1 µM

## CN(CC(c1ccccc1Cl)N1CCCC1)C(=O)C[C@H](N)Cc1ccccc1F (stereo partly drawn) [Example 178]
[1]
  IC50: < 0.1 µM

## N[C@@H](CC(=O)NCCc1cccnc1)Cc1ccccc1F [Example 83]
[1]
  IC50: 0.101 to 1 µM
